From ChEMBL document CHEMBL3792313, “Rational design, synthesis and 2D-QSAR study of novel vasorelaxant active benzofuran-pyridine hybrids” (Bioorg Med Chem Lett, 2016)
Counter-ions that a name gives are not always drawn.

What follows are compounds tested on Thoracic aorta (assay: Vasodilative activity in isolated Wistar rat thoracic aorta assessed as inhibition of norepinephrine hydrochloride-induced contraction).
Assay type: functional, tissue-based
Compound `CCn1cc(-c2cc(-c3cc4ccccc4o3)nc(OC)c2C#N)c2ccccc21` has an IC50 of 299 µM. Work on `COc1nc(-c2cc3ccccc3o2)cc(-c2cccc3ccccc23)c1C#N` yielded an IC50 of 359 µM. Compound `CCOc1nc(-c2cc3ccccc3o2)cc(-c2cc(OC)ccc2OC)c1C#N` has an IC50 of 327 µM. For `CCOc1nc(-c2cc3ccccc3o2)cc(-c2ccc(C)o2)c1C#N`, the IC50 was 417 µM. Work on `CCOc1nc(-c2cc3ccccc3o2)cc(-c2ccc(C)cc2)c1C#N` yielded an IC50 of 290 µM. Compound `CCOc1nc(-c2cc3ccccc3o2)cc(-c2ccc(OC)cc2)c1C#N` has an IC50 of 204 µM. In the case of `COc1nc(-c2cc3ccccc3o2)cc(-c2ccc3ccccc3c2)c1C#N`, the IC50 is reported as 320 µM. `CCOc1nc(-c2cc3ccccc3o2)cc(-c2ccc(Br)cc2)c1C#N` was tested, and the IC50 was 227 µM. `COc1ccc(-c2cc(-c3cc4ccccc4o3)nc(OC)c2C#N)c(OC)c1` gave an IC50 of 425 µM. Compound `COc1nc(-c2cc3ccccc3o2)cc(-c2cn(C)c3ccccc23)c1C#N` has an IC50 of 262 µM. Work on `COc1nc(-c2cc3ccccc3o2)cc(-c2ccc(C)o2)c1C#N` yielded an IC50 of 285 µM. `COc1nc(-c2cc3ccccc3o2)cc(-c2ccc(Cl)cc2)c1C#N` showed an IC50 of 286 µM. With `COc1nc(-c2cc3ccccc3o2)cc(-c2cccs2)c1C#N` the IC50 was 163 µM. Compound `CCOc1nc(-c2cc3ccccc3o2)cc(-c2cccs2)c1C#N` has an IC50 of 308 µM. In the case of `CCOc1nc(-c2cc3ccccc3o2)cc(-c2ccccc2)c1C#N`, the IC50 is reported as 310 µM. Compound `CCOc1nc(-c2cc3ccccc3o2)cc(-c2ccc(N(C)C)cc2)c1C#N` has an IC50 of 338 µM. `COc1ccc(-c2cc(-c3cc4ccccc4o3)nc(OC)c2C#N)cc1` showed an IC50 of 262 µM. `COc1nc(-c2cc3ccccc3o2)cc(-c2ccc(F)cc2)c1C#N` showed an IC50 of 321 µM. Compound `CCOc1nc(-c2cc3ccccc3o2)cc(-c2cc(OC)c(OC)c(OC)c2)c1C#N` has an IC50 of 365 µM. Compound `CCOc1nc(-c2cc3ccccc3o2)cc(-c2ccc(Cl)cc2)c1C#N` has an IC50 of 221 µM. `COc1nc(-c2cc3ccccc3o2)cc(-c2ccc(C)cc2)c1C#N` showed an IC50 of 266 µM. `COc1ccc(OC)c(-c2cc(-c3cc4ccccc4o3)nc(OC)c2C#N)c1` gave an IC50 of 246 µM. In the case of `COc1nc(-c2cc3ccccc3o2)cc(-c2ccc(N(C)C)cc2)c1C#N`, the IC50 is reported as 278 µM. `COc1nc(-c2cc3ccccc3o2)cc(-c2ccc(Cl)cc2Cl)c1C#N` showed an IC50 of 322 µM. `CCOc1nc(-c2cc3ccccc3o2)cc(-c2cccc3ccccc23)c1C#N` showed an IC50 of 344 µM. For `COc1cc(-c2cc(-c3cc4ccccc4o3)nc(OC)c2C#N)cc(OC)c1OC`, the IC50 was 310 µM. `COc1nc(-c2cc3ccccc3o2)cc(-c2ccc(Br)cc2)c1C#N` was tested, and the IC50 was 298 µM. For `CCOc1nc(-c2cc3ccccc3o2)cc(-c2cn(C)c3ccccc23)c1C#N`, the IC50 was 327 µM. For `CCOc1nc(-c2cc3ccccc3o2)cc(-c2cn(CC)c3ccccc23)c1C#N`, the IC50 was 358 µM. For `COc1nc(-c2cc3ccccc3o2)cc(-c2ccccc2)c1C#N`, the IC50 was 232 µM. Compound `CCOc1nc(-c2cc3ccccc3o2)cc(-c2ccc(Cl)cc2Cl)c1C#N` has an IC50 of 442 µM. Compound `CCOc1nc(-c2cc3ccccc3o2)cc(-c2ccc(OC)cc2OC)c1C#N` has an IC50 of 488 µM. With `CCOc1nc(-c2cc3ccccc3o2)cc(-c2ccc3ccccc3c2)c1C#N` the IC50 was 423 µM. Work on `CCOc1nc(-c2cc3ccccc3o2)cc(-c2ccc(F)cc2)c1C#N` yielded an IC50 of 396 µM. In the case of `CCCCc1oc2ccccc2c1C(=O)c1cc(I)c(OCCN(CC)CC)c(I)c1` [AMIODARONE HYDROCHLORIDE], the IC50 is reported as 312 µM.
